Reference: ChEMBL document CHEMBL5154838, “A pH-Dependent rhodamine fluorophore with antiproliferative activity of bladder cancer in Vitro/Vivo and apoptosis mechanism” (Eur J Med Chem, 2022)
Activity calls are given as the source filed them. No cut-off for these calls is given here.

Tests used:
EJ [1] = experiment: Antiproliferative activity against human EJ cells after 24 hrs by CCK-8 assay; type: functional, cell-based
EJ [2] = experiment: Antiproliferative activity against human EJ cells assessed as inhibition of colony formation at 22.35 uM measured by colony formation assay; type: functional, cell-based
EJ [3] = experiment: Antiproliferative activity against human EJ cells at pH 6.5 assessed as cell viability at 22.35 uM after 24 hrs by CCK-8 assay relative to control; type: functional; details: read-out: Activity
EJ [4] = experiment: Antiproliferative activity against human EJ cells at pH 7.5 assessed as cell viability at 22.35 uM after 24 hrs by CCK-8 assay relative to control; type: functional; details: read-out: Activity
EJ [5] = experiment: Antiproliferative activity against human EJ cells at pH 6.5 assessed as LDH levels at 22.35 uM after 24 hrs relative to control; type: functional
EJ [6] = experiment: Antiproliferative activity against human EJ cells at pH 7.5 assessed as LDH levels at 22.35 uM after 24 hrs relative to control; type: functional
EJ [7] = experiment: Antitumor activity against human EJ cells xenografted in male nude mouse assessed as reduction in tumor weight at 22.35 uM and measured at pH 8.5; type: functional, cell-based
EJ [8] = experiment: Antitumor activity against human EJ cells xenografted in male nude mouse assessed as reduction in tumor weight at 22.35 uM and measured at pH 7.5; type: functional, cell-based
EJ [9] = experiment: Antitumor activity against human EJ cells xenografted in male nude mouse assessed as reduction in tumor weight at 22.35 uM and measured at pH 6.5; type: functional, cell-based
EJ [10] = experiment: Antitumor activity against human EJ cells xenografted in male nude mouse assessed as reduction in tumor weight at 22.35 uM and measured at pH 5.5; type: functional, cell-based
EJ [11] = experiment: Antitumor activity against human EJ cells xenografted in male nude mouse assessed as reduction in tumor volume at 22.35 uM and measured at pH 8.5; type: functional, cell-based
EJ [12] = experiment: Antitumor activity against human EJ cells xenografted in male nude mouse assessed as reduction in tumor volume at 22.35 uM and measured at pH 7.5; type: functional, cell-based
EJ [13] = experiment: Antitumor activity against human EJ cells xenografted in male nude mouse assessed as reduction in tumor volume at 22.35 uM and measured at pH 6.5; type: functional, cell-based
EJ [14] = experiment: Antitumor activity against human EJ cells xenografted in male nude mouse assessed as reduction in tumor volume at 22.35 uM and measured at pH 5.5; type: functional, cell-based
EJ [15] = experiment: Antitumor activity against human EJ cells xenografted in male nude mouse assessed as decrease in Ki-67 expression at 22.35 uM and measured at pH 8.5 by immunohistochemistry analysis; type: functional, cell-based
EJ [16] = experiment: Antitumor activity against human EJ cells xenografted in male nude mouse assessed as decrease in Ki-67 expression at 22.35 uM and measured at pH 7.5 by immunohistochemistry analysis; type: functional, cell-based
EJ [17] = experiment: Antitumor activity against human EJ cells xenografted in male nude mouse assessed as decrease in Ki-67 expression at 22.35 uM and measured at pH 6.5 by immunohistochemistry analysis; type: functional, cell-based
EJ [18] = experiment: Antitumor activity against human EJ cells xenografted in male nude mouse assessed as decrease in Ki-67 expression at 22.35 uM and measured at pH 5.5 by immunohistochemistry analysis; type: functional, cell-based
EJ [19] = experiment: Antitumor activity against human EJ cells xenografted in male nude mouse assessed as decrease in PCNA expression at 22.35 uM and measured at pH 8.5 by immunohistochemistry analysis; type: functional, cell-based
EJ [20] = experiment: Antitumor activity against human EJ cells xenografted in male nude mouse assessed as decrease in PCNA expression at 22.35 uM and measured at pH 7.5 by immunohistochemistry analysis; type: functional, cell-based
EJ [21] = experiment: Antitumor activity against human EJ cells xenografted in male nude mouse assessed as decrease in PCNA expression at 22.35 uM and measured at pH 6.5 by immunohistochemistry analysis; type: functional, cell-based
EJ [22] = experiment: Antitumor activity against human EJ cells xenografted in male nude mouse assessed as decrease in PCNA expression at 22.35 uM and measured at pH 5.5 by immunohistochemistry analysis; type: functional, cell-based
EJ [23] = experiment: Induction of apoptosis in human EJ cells at 22.35 uM assessed as increase in apoptosis rate measured by Annexin V-PE/7-AAD-based flow cytometry assay; type: functional, cell-based
EJ [24] = experiment: Induction of apoptosis in human EJ cells at 22.35 uM assessed as increase in Bax expression measured by Western blotting assay; type: functional, cell-based
EJ [25] = experiment: Induction of apoptosis in human EJ cells at 22.35 uM assessed as increase in cleaved caspase-3 expression measured by Western blotting assay; type: functional, cell-based
EJ [26] = experiment: Induction of apoptosis in human EJ cells at 22.35 uM assessed as increase in cleaved caspase-9 expression measured by Western blotting assay; type: functional, cell-based
EJ [27] = experiment: Antitumor activity against human EJ cells xenografted in male nude mouse assessed as increase in Bax expression at 22.35 uM and measured by Western blotting analysis; type: functional, cell-based
EJ [28] = experiment: Antitumor activity against human EJ cells xenografted in male nude mouse assessed as increase in cleaved caspase-3 expression at 22.35 uM and measured by Western blotting analysis; type: functional, cell-based
EJ [29] = experiment: Antitumor activity against human EJ cells xenografted in male nude mouse assessed as increase in cleaved caspase-9 expression at 22.35 uM and measured by Western blotting analysis; type: functional, cell-based
[30] = Antiproliferative activity against human SV-HUC-1 cells after 24 hrs by CCK-8 assay; type: functional, cell-based; details: SV-HUC1, 24 h
[31] = Fluorescence response in PBS solution at pH 3 to 9 assessed as higher sensitivity to fluorescence intensity at 2 uM; type: physicochemical; details: buffer, pH 3, 2 µM
EJ [32] = experiment: Antiproliferative activity against human EJ cells assessed as inhibition of colony formation at 8.34 uM measured by colony formation assay; type: functional, cell-based

SMILES: CCNc1cc2c(cc1C)C1(c3cc(C)c(NCC)cc3O2)c2ccccc2C(=O)N1Cc1ccccn1
- IC50 (EJ [1]): 22.4 µM
- Activity (EJ [2]): Active
- viability at 22.35 µM (EJ [3]): 68.4%
- viability at 22.35 µM (EJ [4]): 83.2%
- Activity (EJ [5]): 42.8%
- Activity (EJ [6]): 26.4%
- Activity (EJ [7]): Active
- Activity (EJ [8]): Active
- Activity (EJ [9]): Active
- Activity (EJ [10]): Active
- Activity (EJ [11]): Active
- Activity (EJ [12]): Active
- Activity (EJ [13]): Active
- Activity (EJ [14]): Active
- Activity (EJ [15]): Active
- Activity (EJ [16]): Active
- Activity (EJ [17]): Active
- Activity (EJ [18]): Active
- Activity (EJ [19]): Active
- Activity (EJ [20]): Active
- Activity (EJ [21]): Active
- Activity (EJ [22]): Active
- Activity (EJ [23]): Active
- Activity (EJ [24]): Active
- Activity (EJ [25]): Active
- Activity (EJ [26]): Active
- Activity (EJ [27]): Active
- Activity (EJ [28]): Active
- Activity (EJ [29]): Active
- IC50 [30]: 25.6 µM
- Activity [31]: Active

SMILES: CCNc1cc2c(cc1C)C1(c3cc(C)c(NCC)cc3O2)c2ccccc2C(=O)N1CC1CCOCC1
- Activity [31]: Active

SMILES: CCNc1cc2c(cc1C)C1(c3cc(C)c(NCC)cc3O2)c2ccccc2C(=O)N1c1ccn([C@@H]2O[C@H](CO)[C@@H](O)C2(F)F)c(=O)n1
- IC50 (EJ [1]): 8.34 µM
- Activity (EJ [32]): Active
- Activity [31]: Active

SMILES: CCNc1cc2c(cc1C)C1(c3cc(C)c(NCC)cc3O2)c2ccccc2C(=O)N1C1CCC1
- Activity [31]: Active

SMILES: CCNc1cc2c(cc1C)C1(c3cc(C)c(NCC)cc3O2)c2ccccc2C(=O)N1CC1CCCO1 (configuration not stated)
- Activity [31]: Active
